Measured values taken from US20100068692A1, “ANTIFREEZE GLYCOPROTEIN ANALOGUES AND USES THEREOF” (UNIVERSITY OF OTTAWA, priority 2008, published 2010).
“Also recorded” adds a separate entry of the source.

Columns and labels:
[1] = isentropic, value x10^4, aqueous solution at 298 K; cited from earlier work
[2] = Recrystallization inhibition (RI) assay, mean largest grain size (Experiment 1); settings: carbohydrate concentration corrected to 0.021 mmole/L (FIG. 3)
Method: All measurements were performed in triplicate. The Y-axis depicts the mean largest grain size (MLGS in mm^2) of ice crystals measured directly from photographs of the sample, as described previously (Raymond, J. A. D., A. L., Proc. Natl. Acad. Sci. USA 1977, 74, 2589).
All samples were compared to a solution of phosphate buffered saline (PBS) which was used as a negative control and a solution of AFGP 8 isolated from Gagus ogac (generously provided by AquaBounty Farms). Each solution was tested at three different concentrations in order to rule out any non-specific RI effects. The Y-axis in FIG. 5 represents mean largest grain size (MLGS) where small bars are representative of potent recrystallization-inhibition activity.
The Y-axis in FIG. 7 represents the mean largest grain size (MLGS) which is an average ice crystal surface area for each sample.

[3] = Nanolitre osmometry of carbohydrate solutions (Experiment 2); settings: 10 mg/mL solutions in double-distilled water
Method: Nanoliter osmometry was performed using a nanoliter osmometer (Clifton Technical Physics, Hartford, N.Y.) as described by Chakrabartty and Hew (Chakrabartty, A.; Hew, C. L. Eur. J. Biochem. 1991, 202, 1057-1063). All measurements were made in doubly distilled water. Ice crystal morphology was observed through a Leitz compound microscope equipped with an Olympus 20× (infinity corrected) objective, Leitz Periplan 32× photo eyepiece and a Hitachi KP-M2U CCD camera connected to a Toshiba MV13K1 TV/VCR system. Still images were captured directly using a Nikon CoolPix digital camera.
It has been proposed that the optimal distance between hydroxyl groups is 4.2-4.5 Angstroms (Baruch, E.; Belostotskii, A. M.; Mastai, Y. J. Mol. Struct. 2008, 874, 170).

[4] = RI assay, splat cooling with domain recognition software (Experiment 2)
Method: Sample analysis for RI activity was performed using the “splat cooling” method as described previously (Knight, C. A.; Hallet, J.; DeVries, A. L. Cryobiology, 1998, 25, 55). In this method, the analyte is dissolved in phosphate buffered saline (PBS) solution and a 10 μL drop of this solution is dropped from a micropipette through a two metre high plastic tube (10 cm in diameter) onto a block of polished aluminum pre-cooled to approximately −80° C. The droplet freezes instantly on the polished aluminum block and is approximately 1 cm in diameter and 20 μm thick. This wafer is then carefully removed from the surface of the block and transferred to a cryostage held at −6.4° C. for annealing. After a period of 30 minutes, the wafer was photographed between crossed polarizing filters using a digital camera (Nikon CoolPix 5000) fitted to the microscope. A total of three images are taken from each wafer. During flash freezing, ice crystals spontaneously nucleate from the super-cooled solution. These initial crystals are relatively homogenous in size and quite small. During the annealing cycle recrystallization occurs, resulting in a dramatic increase in ice crystal size. A quantitative measure of the difference in recrystallization inhibition of two compounds X and Y is the difference in the dynamics of the ice crystal size distribution. […] This processing employed of the Microsoft Windows Graphical User Interface to allow a user to visually demarcate and store the vertices of ice domains in a digital micrograph. […] To eliminate the need to fully process each micrograph, an algorithm was developed to randomly display a number of x/y locations. The algorithm made use of a built-in pseudo random number generator (rand(x)) and was written so that no two locations were closer than 1/10th the field of view of the micrograph. The formula for the area of a polygon that is not self-intersecting and contains no holes is then given by Eq.2,
where N is the number of vertices, and x0, y0 to xN−1, yN−1 are the vertices circumventing the polygon in a clockwise direction. The point x0, y0 is assumed to be equivalent to the point xN, yN. The software was written in C using Microsoft Visual Studio 6.0 on a Pentium class personal computer running Microsoft Windows 2000 or XP. All data was plotted and analyzed using Microsoft Excel.

[5] = Thermal hysteresis (TH), microcapilliary method
[6] = Nanoliter osmometer: thermal hysteresis and dynamic ice shaping (Experiment 1); settings: without antifreeze the crystal is perfectly round, 'Identical images' refers to that, 13: 0.0033 mmole/L in doubly distilled water
Method: FIG. 4 (A) depicts a single ice crystal in the absence of biological antifreeze. Notice that the crystal is perfectly round and has no facets or edges.
AFGP analogues 18a-c were assayed for antifreeze protein-specific activity using nanoliter osmometry and a recrystallization-inhibition assay.

For `OCC1O[C@H](O[C@@H]2C(CO)O[C@@H](O)C(O)C2O)C(O)C(O)[C@@H]1O` (stereo partly shown), the “Molar Compressibility (K2°(s)x10^4)” value [1] is listed as −23.7 cm^3 mol^−1 bar^−1.
In the case of `N[C@@H](CCCCNC(=O)C[C@H]1OC(CO)[C@H](O)[C@H](O)C1O)C(=O)NCC(=O)NCC(=O)O` (stereo partly shown) [Compound 10], the “RI activity relative to PBS (in words)” value [2] is reported as “do not show any RI activity”.
For `OCC1O[C@@H](O)C(O)[C@@H](O)[C@H]1O` (stereo partly drawn) [D-galactose], the “Melting Point” value [3] was −0.069 °C, the “RI activity (in words)” value ([4]; 0.022 M in PBS solution) was “inhibit recrystallization as well as a 3% DMSO solution” and the “RI activity (in words)” value ([4]; 0.022 M in PBS solution, listed as galactose) was “as efficient at inhibiting recrystallization as a 3% (v/v) DMSO solution; also recorded: possesses the most RI activity”. For the same compound, the “RI activity (in words)” value ([4]; 0.044 M solution in PBS) was “RI activity similar to that of a 0.022 M solution” and the “RI activity (in words)” value ([4]; 0.22 M solution in PBS) was “effective inhibitor of recrystallization”.
For `OCC1O[C@@H](O)C(O)[C@@H](O)[C@@H]1O` (stereo partly drawn) [D-glucose], the “Melting Point” value [3] is given as −0.055 °C and the “Molar Compressibility (K2°(s)x10^4)” value [1] is given as −17.6 cm^3 mol^−1 bar^−1.
In the case of `OCC1O[C@H](O[C@H]2OC(CO)[C@@H](O)C(O)C2O)C(O)C(O)[C@@H]1O` (stereo partly drawn) [D-trehalose], the “Melting Point” value [3] is reported as −0.015 °C.
In the case of `C[S+](C)[O-]` [DMSO, dimethylsulfoxide], the “RI activity (in words)” value ([4]; 0.1% (v/v) solution in PBS) is reported as “failed to inhibit recrystallization” and the “RI activity (in words)” value ([4]; 4% (v/v) solution in PBS) is reported as “produced a significant RI effect”.
In the case of `OCC1O[C@H](O[C@H]2OC(CO)[C@@H](O)C(O)C2O)C(O)C(O)[C@@H]1O` (stereo partly shown) [drawing 28], the “Molar Compressibility (K2°(s)x10^4)” value [1] is listed as −30.2 cm^3 mol^−1 bar^−1.
In the case of `OCC(O)CO` [glycerol], the “temperature below the melting point at which rapid crystal growth occurred / solution freezes” value [5] is reported as −0.01 °C.
In the case of `OCC1O[C@H](OCC2O[C@@H](O)C(O)C(O)[C@@H]2O)C(O)C(O)[C@H]1O` (stereo partly shown) [melibiose], the “Melting Point” value [3] is listed as −0.17 °C, the “RI activity (in words)” value ([4]; 0.022 M in PBS solution) is listed as “is the most potent” and the “Molar Compressibility (K2°(s)x10^4)” value [1] is listed as −31.2 cm^3 mol^−1 bar^−1.
With `[Cl-].[Na+]` [salt, sodium chloride] the “temperature below the melting point at which rapid crystal growth occurred / solution freezes” value [5] was −0.01 °C and the “single ice crystal morphology” value [6] was “Identical images”.
In the case of `OC[C@H]1O[C@@](CO)(O[C@H]2O[C@H](CO)[C@@H](O)[C@H](O)[C@H]2O)[C@@H](O)[C@@H]1O` [sucrose], the “RI activity (in words)” value ([4]; 0.022 M in PBS solution) is reported as “little effect upon recrystallization”.
In the case of `OCC1O[C@@H](O)C(O)[C@@H](O)[C@H]1O` (stereo partly shown) [talose], the “Molar Compressibility (K2°(s)x10^4)” value [1] is given as −11.9 cm^3 mol^−1 bar^−1.
For “(L-lysine-glycine-glycine)-6-glycine [peptide control]”, the “RI activity relative to PBS (in words)” value [2] was “did not inhibit the growth of ice”.
